Measured values: US9802901B2, “Antibacterial 2H-indazole derivatives” (priority 2013, dated 2017)
In brackets after ≈: the same amount, converted by molar mass. Where a name gives a salt, the structure may show the parent alone. Read-outs that look alike come from different tables or passages of the source.

Key:
Assay in all cases: Bacterial growth minimal inhibitory concentration (broth microdilution, CLSI M7-A7)
[1] = test system: Acinetobacter baumannii T6474; assay type: cell-based; details: for MIC: Acinetobacter baumannii
Experimental: (§1) Minimal Inhibitory Concentrations (MICs; mg/L) were determined in cation-adjusted Mueller-Hinton Broth by a microdilution method following the description given in “Methods for Dilution Antimicrobial Susceptibility Tests for Bacteria that Grow Aerobically”, Approved standard, 7th ed., Clinical and Laboratory Standards Institute (CLSI) Document M7-A7, Wayne, Pa., USA (2006).
(§2) All Example compounds, except the compound of Example 62, were tested against several Gram-positive and Gram-negative bacteria. […] K. pneumoniae A-651 and Acinetobacter baumannii T6474 are multiply-resistant strains (in particular quinolone-resistant), while E. coli ATCC25922 and P. aeruginosa ATCC27853 are quinolone-sensitive strains.

E. coli ATCC25922 = assay type: cell-based, Escherichia coli; details: for MIC: Escherichia coli
Experimental: as §1, §2

P. aeruginosa ATCC27853 = assay type: cell-based, Pseudomonas aeruginosa; details: for MIC: Pseudomonas aeruginosa
Experimental: as §1, §2

K. pneumoniae A-651 = assay type: cell-based, Klebsiella pneumoniae; details: for MIC: Klebsiella pneumoniae
Experimental: as §1, §2

[2] = T6474, cation-adjusted Mueller-Hinton Broth, microdilution, multiply-resistant (quinolone-resistant) strain, read-out: MIC for A. Baumannii T6474
[3] = ATCC25922, cation-adjusted Mueller-Hinton Broth, microdilution, quinolone-sensitive strain, read-out: MIC for E. coli ATCC25922
[4] = ATCC27853, cation-adjusted Mueller-Hinton Broth, microdilution, quinolone-sensitive strain, read-out: MIC for P. aeruginosa ATCC27853
[5] = A651, cation-adjusted Mueller-Hinton Broth, microdilution, multiply-resistant (quinolone-resistant) strain, read-out: MIC for K. Pneumoniae A-651
[6] = cation-adjusted Mueller-Hinton Broth, microdilution, multiply-resistant (quinolone-resistant) strain
[7] = cation-adjusted Mueller-Hinton Broth, microdilution, quinolone-sensitive strain

| Molecule | MIC [1, 2] [µg/mL] | MIC (E. coli ATCC25922; [3]) [µg/mL] | MIC (P. aeruginosa ATCC27853; [4]) [µg/mL] | MIC (K. pneumoniae A-651; [5]) [µg/mL] | other results |
| --- | --- | --- | --- | --- | --- |
| C[C@@](CCn1cc2cc(/C=C/c3ccccc3)ccc2n1)(C(=O)NO)S(C)(=O)=O [Example 17, (R)—N-hydroxy-2-methylsulfonyl-2-methyl-4-[5-((E)-styryl)-indazol-2-yl]-butanamide] | 1 (≈ 2.42 µM) | 0.063 (≈ 0.152 µM) | 16 (≈ 38.7 µM) | 0.063 (≈ 0.152 µM) | – |
| C[C@@](CCn1cc2cc(C#Cc3cncnc3)ccc2n1)(C(=O)NO)S(C)(=O)=O [Example 59, (R)—N-hydroxy-2-methyl-2-(methylsulfonyl)-4-(5-(pyrimidin-5-ylethynyl)-2H-indazol-2-yl)butanamide] | 8 (≈ 19.3 µM) | 4 (≈ 9.67 µM) | 8 (≈ 19.3 µM) | 8 (≈ 19.3 µM) | – |
| C[C@@](CCn1cc2cc(C#CC#C[C@H]3C[C@@H]3CO)ccc2n1)(C(=O)NO)S(C)(=O)=O.O=CO [Example 36, (R)—N-hydroxy-4-(5-(((1S,2S)-2-(hydroxymethyl)cyclopropyl)buta-1,3-diyn-1-yl)-2H-indazol-2-yl)-2-methyl-2-(methylsulfonyl)butanamide formate] | 2 | 0.063 | 0.25 | 0.125 | – |
| CC(C)(N)CC#CC#Cc1ccc2nn(CC[C@](C)(C(=O)NO)S(C)(=O)=O)cc2c1 [Example 82, (R)-4-(5-(6-amino-6-methylhepta-1,3-diyn-1-yl)-2H-indazol-2-yl)-N-hydroxy-2-methyl-2-(methylsulfonyl)butanamide] | > 32 | 4 (≈ 9.29 µM) | 4 (≈ 9.29 µM) | 8 (≈ 18.6 µM) | – |
| C[C@@](CCn1cc2cc(C#Cc3ccc(C4(O)COC4)cc3)ccc2n1)(C(=O)NO)S(C)(=O)=O [Example 20, (R)—N-hydroxy-4-{5-[4-(3-hydroxy-oxetan-3-yl)-phenylethynyl]-indazol-2-yl}-2-methylsulfonyl-2-methyl-butanamide] | 0.5 (≈ 1.03 µM) | 0.25 (≈ 0.517 µM) | 0.5 (≈ 1.03 µM) | 0.125 (≈ 0.259 µM) | – |
| C[C@@](CCn1cc2cc(-c3ccc(OC(F)(F)F)cc3)ccc2n1)(C(=O)NO)S(C)(=O)=O [Example 8, (R)—N-hydroxy-2-methylsulfonyl-2-methyl-4-[5-(4-trifluoromethoxy-phenyl)-indazol-2-yl]-butanamide] | 0.125 (≈ 0.265 µM) | 0.25 (≈ 0.53 µM) | 4 (≈ 8.48 µM) | 0.5 (≈ 1.06 µM) | – |
| CSc1ccc(-c2ccc3nn(CC[C@](C)(C(=O)NO)S(C)(=O)=O)cc3c2)c(F)c1 [Example 9, (R)-4-[5-(2-fluoro-4-methylsulfanyl-phenyl)-indazol-2-yl]-N-hydroxy-2-methylsulfonyl-2-methyl-butanamide] | 0.25 (≈ 0.554 µM) | 0.063 (≈ 0.14 µM) | 2 (≈ 4.43 µM) | 0.063 (≈ 0.14 µM) | – |
| C[C@@](CCn1cc2cc(C#CC#CCC3(O)COC3)ccc2n1)(C(=O)NO)S(C)(=O)=O [Example 80, (R)—N-hydroxy-4-(5-(5-(3-hydroxyoxetan-3-yl)penta-1,3-diyn-1-yl)-2H-indazol-2-yl)-2-methyl-2-(methylsulfonyl)butanamide] | 32 (≈ 71.8 µM) | 0.5 (≈ 1.12 µM) | 1 (≈ 2.24 µM) | 1 (≈ 2.24 µM) | – |
| (R)-4-(5-(5-amino-5-methylhexa-1,3-diyn-1-yl)-2H-indazol-2-yl)-N-hydroxy-2-methyl-2-(methylsulfonyl)butanamide [Example 24] | – | – | – | – | MIC for A. Baumannii T6474 [1, 6]: >32 µg/mL; MIC for E. coli ATCC25922 (E. coli ATCC25922; [7]): 0.5 µg/mL; MIC for P. aeruginosa ATCC27853 (P. aeruginosa ATCC27853; [7]): 0.5 µg/mL; MIC for K. Pneumoniae A-651 (K. pneumoniae A-651; [6]): 1 µg/mL |
| CN(C)CC#CC#Cc1ccc2nn(CC[C@](C)(C(=O)NO)S(C)(=O)=O)cc2c1 [Example 75, (R)-4-(5-(5-(dimethylamino)penta-1,3-diyn-1-yl)-2H-indazol-2-yl)-N-hydroxy-2-methyl-2-(methylsulfonyl)butanamide] | > 32 | 0.125 (≈ 0.3 µM) | 0.5 (≈ 1.2 µM) | 0.15 (≈ 0.36 µM) | – |
| CC(CCn1cc2cc(-c3ccc(OCCCN4CCOCC4)cc3)ccc2n1)(C(=O)NO)S(C)(=O)=O.O=CO (racemic) [RE1, (RS)—N-hydroxy-2-methylsulfonyl-2-methyl-4-{5-[4-(3-morpholin-4-yl-propoxy)-phenyl]-indazol-2-yl}-butanamide formic acid salt] | 4 | 0.5 | 4 | 1 | – |
| C[C@@](CCn1cc2cc(C#CC#C[C@@H]3C[C@@H](O)[C@@H](O)C3)ccc2n1)(C(=O)NO)S(C)(=O)=O [Example 64, (R)-4-(5-(((1S,3R,4S)-3,4-dihydroxycyclopentyl)buta-1,3-diyn-1-yl)-2H-indazol-2-yl)-N-hydroxy-2-methyl-2-(methylsulfonyl)butanamide] | – | – | – | – | MIC for A. Baumannii T6474 [1, 6]: 4 µg/mL; MIC for E. coli ATCC25922 (E. coli ATCC25922; [7]): 0.125 µg/mL; MIC for P. aeruginosa ATCC27853 (P. aeruginosa ATCC27853; [7]): 0.25 µg/mL; MIC for K. Pneumoniae A-651 (K. pneumoniae A-651; [6]): 0.5 µg/mL |
| C[C@@](CCn1cc2cc(C#Cc3ccc([C@H](O)CO)cc3)ccc2n1)(C(=O)NO)S(C)(=O)=O [Example 51, (R)-4-(5-((4-((S)-1,2-dihydroxyethyl)phenyl)ethynyl)-2H-indazol-2-yl)-N-hydroxy-2-methyl-2-(methylsulfonyl)butanamide] | 1 (≈ 2.12 µM) | 1 (≈ 2.12 µM) | 0.5 (≈ 1.06 µM) | 0.5 (≈ 1.06 µM) | – |
| CC(CCn1cc2cc(C#Cc3ccc(C4(O)COC4)cc3)c(F)cc2n1)(C(=O)NO)S(C)(=O)=O (stereo not shown) [Example 40, 4-(6-fluoro-5-((4-(3-hydroxyoxetan-3-yl)phenyl)ethynyl)-2H-indazol-2-yl)-N-hydroxy-2-methyl-2-(methylsulfonyl)butanamide] | 1 (≈ 1.99 µM) | 0.125 (≈ 0.249 µM) | 1 (≈ 1.99 µM) | 0.25 (≈ 0.498 µM) | – |
| C[C@@](CCn1cc2cc(C#CC#C[C@H](O)CO)ccc2n1)(C(=O)NO)S(C)(=O)=O [Example 55, (R)-4-(5-((S)-5,6-dihydroxyhexa-1,3-diyn-1-yl)-2H-indazol-2-yl)-N-hydroxy-2-methyl-2-(methylsulfonyl)butanamide] | > 32 | 2 (≈ 4.77 µM) | 2 (≈ 4.77 µM) | 4 (≈ 9.54 µM) | – |
| C[C@@](CCn1cc2cc(C#CC#CC3(N)COC3)ccc2n1)(C(=O)NO)S(C)(=O)=O [Example 48, (R)-4-(5-((3-aminooxetan-3-yl)buta-1,3-diyn-1-yl)-2H-indazol-2-yl)-N-hydroxy-2-methyl-2-(methylsulfonyl)butanamide formate] | – | – | – | – | MIC ([1]; T6474, read-out: MIC for A. Baumannii T6474): > 32 µg/mL; MIC (E. coli ATCC25922; ATCC25922, read-out: MIC for E. coli ATCC25922): 2 µg/mL; MIC (P. aeruginosa ATCC27853; ATCC27853, read-out: MIC for P. aeruginosa ATCC27853): 2 µg/mL; MIC (K. pneumoniae A-651; A651, read-out: MIC for K. Pneumoniae A-651): 4 µg/mL |
| CC(CCn1cc2cc(-c3ccc(-c4ncco4)cc3)ccc2n1)(C(=O)NO)S(C)(=O)=O.O=CO (racemic) [RE6, (RS)—N-hydroxy-2-methylsulfonyl-2-methyl-4-[5-(4-oxazol-2-yl-phenyl)-indazol-2-yl]-butanamide formic acid salt] | 4 | 0.125 | 8 | 0.25 | – |
| C[C@@](CCn1cc2cc(C#Cc3ccc(NC(=O)CO)c(F)c3)ccc2n1)(C(=O)NO)S(C)(=O)=O [Example 45, (R)-4-(5-((3-fluoro-4-(2-hydroxyacetamido)phenyl)ethynyl)-2H-indazol-2-yl)-N-hydroxy-2-methyl-2-(methylsulfonyl)butanamide] | 8 (≈ 15.9 µM) | 0.25 (≈ 0.497 µM) | 1 (≈ 1.99 µM) | 1 (≈ 1.99 µM) | – |
| COc1cccc(-c2ccc3nn(CCC(C)(C(=O)NO)S(C)(=O)=O)cc3c2)c1F (racemic) [RE7, (RS)-4-(5-(2-fluoro-3-methoxyphenyl)-2H-indazol-2-yl)-N-hydroxy-2-methyl-2-(methylsulfonyl)butanamide] | 0.5 (≈ 1.15 µM) | 0.125 (≈ 0.287 µM) | 2 (≈ 4.59 µM) | 0.125 (≈ 0.287 µM) | – |
| C[C@@](CCn1cc2cc(C#Cc3ccc([C@@H]4C[C@H]4CO)cc3)ccc2n1)(C(=O)NO)S(C)(=O)=O [Example 41, (R)—N-hydroxy-4-(5-((4-((1R,2R)-2-(hydroxymethyl)cyclopropyl)phenyl)ethynyl)-2H-indazol-2-yl)-2-methyl-2-(methylsulfonyl)butanamide] | 0.125 (≈ 0.26 µM) | 0.125 (≈ 0.26 µM) | 1 (≈ 2.08 µM) | 0.063 (≈ 0.131 µM) | – |
| C[C@@](CCn1cc2c(F)c(C#CC#CC3(O)COC3)ccc2n1)(C(=O)NO)S(C)(=O)=O [Example 38, (R)-4-{4-fluoro-5-[4-(3-hydroxy-oxetan-3-yl)-buta-1,3-diynyl]-indazol-2-yl}-N-hydroxy-2-methylsulfonyl-2-methyl-butanamide] | > 32 | 0.5 (≈ 1.11 µM) | 1 (≈ 2.22 µM) | 1 (≈ 2.22 µM) | – |
| C[C@@](CCn1cc2cc(C#Cc3ccc(OCCO)cc3)ccc2n1)(C(=O)NO)S(C)(=O)=O [Example 44, (R)—N-hydroxy-4-(5-((4-(2-hydroxyethoxy)phenyl)ethynyl)-2H-indazol-2-yl)-2-methyl-2-(methylsulfonyl)butanamide] | 0.25 (≈ 0.53 µM) | 0.125 (≈ 0.265 µM) | 1 (≈ 2.12 µM) | 0.25 (≈ 0.53 µM) | – |
